One data set relates to Caco-2 cells. Briefly: Caco-2 bidirectional permeability. The data set is classed as in vitro ADME. As to conditions: for Caco-2 A2B (10^−6 cm/s): A to B; for Caco-2 A2B (10^−6 cm/s) / Caco-2 B2A (10^−6 cm/s): HBSS pH 7.4, 2 hours; for Caco-2 B2A (10^−6 cm/s): B to A; for Caco-2 ER: Efflux Ratio=Papp (BA)/Papp (AB). The method, boiled down:
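Caco-2 monolayers grown 21–28 days on PET inserts were run in duplicate in HBSS with 10 mM HEPES, pH 7.4. Compound was tested in both directions at […] for 2 h at 37 °C and quantified by LC-MS/MS. Papp, % recovery and efflux ratio (B-A/A-B) were calculated, with lucifer yellow checking monolayer integrity.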

The nature of data set [1]: Brain penetration (Kp,uu) in CD-1 mice, with plasma and brain tissue binding by equilibrium dialysis. As to conditions: mouse, brain and plasma (unbound), male CD-1 mice, single IV bolus 1 mg/kg. The data set is classed as in vivo. The method, boiled down: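 Male CD-1 mice received a single 1 mg/kg IV tail-vein bolus in 5% DMSO/5% solutol/20% PEG300/70% water; plasma and brain homogenate were measured by LC-MS/MS. Free fractions came from equilibrium dialysis against PBS at 37 °C for 6 h, brain homogenate spiked at 1 μM final. Kp,uu = (brain % free × brain conc)/(plasma % free × plasma conc).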

On to `Cc1n[nH]c2c1N=C(c1c(F)cccc1F)Nc1c-2cc(N2CC3(CCOCC3)C2)nc1C` [Example 47, 2-[8-(2,6-difluorophenyl)-5,11-dimethyl-3,4,7,9,12-pentazatricyclo[8.4.0.02,6]tetradeca-1(10),2(6),4,7,11,13-hexaen-13-yl]-7-oxa-2-azaspiro[3.5]nonane], for which, in the data set with Caco-2 cells, the “Caco-2 A2B (10^−6 cm/s)” value is on record as “M (M (Moderate permeability)”: 1≤A2B (B2A)≤5)”, the “Caco-2 B2A (10^−6 cm/s)” value is listed as “H (H (High permeability)”: A2B (B2A)>5)” and the “Caco-2 ER” value is “L (L (Likely)”: ER>2.5)”. In data set [1], the Kp uu was in the range of 0.2 to 0.4.
For `Cc1n[nH]c2c1N=C(c1c(F)cccc1F)Nc1cnc(N3CCO[C@@H](C(F)(F)F)C3)cc1-2` [Example 55, (2R)-4-[8-(2,6-difluorophenyl)-5-methyl-3,4,7,9,12-pentazatricyclo[8.4.0.02,6]tetradeca-1(10),2(6),4,7,11,13-hexaen-13-yl]-2-(trifluoromethyl)morpholine] the same measures were “H (H (High permeability)”: A2B (B2A)>5)”, “H (H (High permeability)”: A2B (B2A)>5)”, “N (N (Non-substrate)”: ER<2.5)” and less than 0.2.
As to `Cn1nccc1-c1cc2c(cn1)NC(c1c(F)cccc1F)=Nc1c(Cl)n[nH]c1-2` [Example 59, 3-chloro-5-(2,6-difluorophenyl)-9-(1-methyl-1H-pyrazol-5-yl)-1,6-dihydropyrazolo[4,3-d]pyrido[4,3-f][1,3]diazepine], in the data set with Caco-2 cells, the “Caco-2 A2B (10^−6 cm/s)” value is recorded as “H (H (High permeability)”: A2B (B2A)>5)”, the “Caco-2 B2A (10^−6 cm/s)” value is given as “H (H (High permeability)”: A2B (B2A)>5)” and the “Caco-2 ER” value is on record as “N (N (Non-substrate)”: ER<2.5)”. This compound also gave a Kp uu in data set [1] of less than 0.2.

Source of the values: patent publication US20240208972A1, “LRRK2 INHIBITORS AND USES THEREOF” (NEURON23, INC., priority 2022, published 2024).
